Measured values from PubChem BioAssay AID1850 (Southern Research Specialized Biocontainment Screening …, 2009).
Values joined by “and” are separate entries in the source; they are usually repeats but may differ in a detail not shown here. Equal values may be shown once.

Test system: Salmonella Typhi PhoP-promoter GFP reporter, fluorescence, 4 h
Assay: PhoP regulon inhibitors, Salmonella typhi PhoP promoter GFP reporter, confirmatory (AID 1850)

| SMILES | IC50 |
| --- | --- |
| O=C(CNC(=O)c1ccccc1)N/N=C/c1ccc([N+](=O)[O-])s1 | 19.7 µM |
| Nc1nc(Nc2ccccc2)nc2ccccc12 | 34.4 µM |
| CCOc1cc(CNC(C)(C)CO)cc(Br)c1OCc1ccc(Cl)cc1Cl | 43.6 µM |
| Oc1c(Br)cc(Br)cc1C=Nc1ccc2[nH]ncc2c1 | 27.6 µM |
| CNC[C@@H](Cc1ccccc1)NC[C@@H](CC1CCCCC1)NCCCc1ccccc1 | 38.2 µM |
| CC1CCC(C(C)C)C(OC(=O)Cn2c(COc3ccccc3)[n+](C)c3ccccc32)C1 (centres undefined) | 35.1 µM |
| N#C/C(N=Nc1ccccc1O)=N\Nc1ccccc1O | 36.1 µM |
| Cc1cc2oc(=O)cc(CN3CCN(C/C=C/c4ccccc4)CC3)c2cc1O | 80.5 µM |
| S=C(NCc1ccc(Cl)cc1)Nc1ccncc1 | 19.1 µM |
| O=C1OCC(CO)(CO)N=C1NNc1ccc(Cl)c(Cl)c1 | 47.9 µM |
| CCCCCNc1nc(N2CCCC2)c2c(c1C#N)CCN(C)C2 | 53.6 µM |
| CCCCCCCNC(=O)C1(CC2CC(c3ccc(Cl)cc3)=NO2)CCNCC1 (centres undefined) | 37.4 µM |
| COc1ccc2c(C(=O)CCl)c[nH]c2c1 | 66.9 µM |
| CCCCCOc1ccc(CSC2=NCCN2)cc1[N+](=O)[O-] | 36.8 µM |
| COc1ccc(/C=C/c2cc(-c3ccc(C)cc3)o[n+]2C)cc1 | 37.2 µM |
| CCCCOc1ccc(Br)cc1CSC(=N)N | 35 µM |
| O=C(CN1C2=NCCCN2c2ccccc21)c1ccc(Br)s1 | 147 µM |
| CN(C)CCNC(=O)c1ccc(COc2ccc(Cl)cc2Cl)cc1 | 125 µM |
| CNCCCC1c2ccccc2C=Cc2ccccc21 | 136 µM |
| CCN1/C(=C/C(C)=C/c2sc3ccccc3[n+]2CC)Sc2ccccc21 | 4.88 µM |
| O=C(Nc1nnc(C2COc3ccccc3O2)o1)c1ccc(F)cc1 (centres undefined) | 36.5 µM |
| COc1cc(CNCCc2c[nH]c3ccccc23)ccc1OCc1ccc(F)cc1 | 50.9 µM |
| OC(CNCCc1ccc(Cl)cc1Cl)COc1ccccc1 (centres undefined) | 71 µM |

| SMILES | IC50 |
| --- | --- |
| O=C(COc1ccc(Br)cc1CNCCc1ccccc1)NCc1ccccc1 | 106 µM |
| CCCCCCCSc1cc(OC)c(CCN(C)C)cc1OC | 35.7 µM |
| COc1ccc(CNCC(O)COc2ccc(C(C)(C)c3ccccc3)cc2)cc1 (centres undefined) | 20.9 µM |
| NC1=NC[C@H](Cc2ccccc2)N1CCCCC1CCCCC1 | 22 µM |
| O=C(CNC(=O)c1cccc(F)c1)N/N=C/c1ccc([N+](=O)[O-])s1 | 20 µM |
| Cn1ncnc2c(=O)n(C)c(=O)nc1-2 | 1.29 µM |
| Oc1ccc(COCc2ccccc2)c2cccnc12 | 37.1 µM |
| Oc1c(CN2CCOCC2)cc(COCc2ccccc2)c2cccnc12 | 38.5 µM |
| CCCCCCCCCCOC(=O)Cn1c(COc2ccc(C)cc2)[n+](C)c2ccccc21 | 10.5 µM |
| CC(=O)NC(c1ccc(Cl)cc1Cl)c1ccc2cccnc2c1O (centres undefined) | 95.5 µM |
| Cn1c(SCC(=O)N/N=C/c2ccc([N+](=O)[O-])s2)nnc1-c1ccc(Cl)cc1 | 35.8 µM |
| COc1cc([N+](=O)[O-])cc(/C=N/NC(=O)CSc2ccccn2)c1O | 127 µM |
| CCCCn1c(NS(=O)(=O)c2ccc(C)cc2)c(S(=O)(=O)c2ccccc2)c2nc3ccccc3nc21 | 7.98 µM |
| Nc1cccc2c(=O)c3ccccc3[nH]c12 | 21.5 µM |
| c1cc2c(cc1C1CCCCC1)c1c3n2CCN=C3CCC1 | 51.1 µM |
| OCCN1CCN(CCCN2c3ccccc3Sc3ccc(Cl)cc32)CC1 | 69.2 µM |
| CC1=C([N+](=O)[O-])C(c2cccc(Br)c2)C2=C(N1)c1ccccc1C2=O (centres undefined) | 18.2 µM |
| C#CCOCCOCCOCCNc1nc(N2CCN(C(=O)[C@H](Cc3ccc(O)cc3)n3cc([C@@H](N)CC(C)C)nn3)CC2)nc(N2CCN(C(=O)[C@H](Cc3cc4ccccc4[nH]3)n3cc([C@@H](N)CC(C)C)nn3)CC2)n1 | 105 µM |
| C#CCOCCOCCOCCNc1nc(N2CCN(C(=O)CCCCCCCCCCNC(=O)[C@H](CCCCN)n3cc(CCO)nn3)CC2)nc(N2CCN(C(=O)CCCCCCCCCCNC(=O)[C@H](CCCCN)n3cc(C[C@@H](C)CC)nn3)CC2)n1 | 31.9 µM |
| O=C(N/N=C/c1cc(O)ccc1Br)c1cccnc1 | 38.5 µM |
| NC(=O)SCC(=O)Nc1cccc(Cl)c1 | 9.08 µM |
| CCOc1ccc(Nc2nc(NCC3CCCO3)c3ccccc3n2)cc1 (centres undefined) | 3.28 µM |
| Cc1ccc(-c2csc(N=C(N)N)n2)c(C)c1 | 50.1 µM |

| SMILES | IC50 |
| --- | --- |
| O=C1C(=O)c2ccccc2-c2ccccc21 | 20.7 µM |
| Cc1ccc(C(OCC(O)CNCc2ccc(F)cc2)c2ccccc2)cc1 (centres undefined) | 48.4 µM |
| CCCCC(=O)NNC(=S)NC(=O)CCC | 97.4 µM |
| NC1CCN(c2nc3c(cc2F)c(=O)c(C(=O)O)cn3-c2ccc(F)cc2F)C1 (centres undefined) | < 0.23 µM |
| CCCCCCCNC(=O)C1(CC2CC(c3cccc(Br)c3)=NO2)CCNCC1 (centres undefined) | 53.7 µM |
| CN(Cc1ccccc1O)CC1CCCN(CCc2ccc(Cl)cc2)C1 (centres undefined) | 98.5 µM |
| c1ccc(CNc2nc(N3CCN(Cc4ccccc4)CC3)nc3ccccc23)cc1 | 18.2 µM |
| COc1ccc(NC(=O)c2cc(Br)c(Br)s2)cn1 | 10.3 µM |
| CCOC(=O)Cn1c(=N)n(CCOc2ccc3ccccc3c2)c2ccccc21 | 53.1 µM |
| COc1cc(CNCCO)cc(Cl)c1OCc1ccc(Cl)cc1Cl | 38 µM |
| CCCCc1ccc(NC2=NCCCS2)cc1 | 140 µM |
| O=C(c1ccc([N+](=O)[O-])o1)N1CCOCC1 | 76.8 µM |
| CN1CCN(C(c2ccc(C(F)(F)F)cc2)c2ccc3cccnc3c2O)CC1 (centres undefined) | 20 µM |
| O=C(C[n+]1cc(-c2ccccc2)n2c1CCC2)Nc1nc(-c2ccc(F)cc2)cs1 | 38.7 µM |
| CN(C)C1C(=O)C(C(N)=O)=C(O)C2(O)C(=O)C3=C(O)c4c(O)cccc4C(C)(O)C3CC12 (centres undefined) | 3.07 µM |
| Cc1cccc2sc(N(CCCN(C)C)C(=O)COc3ccc(Cl)cc3)nc12 | 38.6 µM |
| CCOC(=O)c1ccc(CNCc2ccc(Br)cc2)cc1 | 78.5 µM |
| O=C(N/N=C/c1ccc([N+](=O)[O-])o1)C(O)c1ccccc1 (centres undefined) | 35.2 µM |
| O=C(Nc1nnc(-c2ccccn2)o1)c1cccc(Cl)c1 | 114 µM |
| CCC[C@H](CN[C@@H](CNC)[C@H](C)CC)NCCc1cc(C(F)(F)F)cc(C(F)(F)F)c1 | 34.6 µM |
| O=C(CC1NCCc2ccccc21)Nc1ccc(Oc2ccccc2)cc1 (centres undefined) | 47.3 µM |
| COc1ccc(OCC(O)CNc2ccc(Br)cc2)cc1 (centres undefined) | 5.72 µM |
| N=c1c2c(-c3ccccc3)c(-c3ccccc3)n(Cc3ccco3)c2ncn1CCCn1ccnc1 | 110 µM |

| SMILES | IC50 |
| --- | --- |
| CCCCCCCSc1cc(OC)c(CCNC)cc1OC | 35.9 µM |
| O=C(C[n+]1ccc(-c2ccccc2)cc1)Nc1ccc([N+](=O)[O-])cc1 | 40.5 µM |
| CC(=O)NC(c1cccs1)c1cc([N+](=O)[O-])c2cccnc2c1O (centres undefined) | 31.7 µM |
| Cc1cc(C)n(-c2nc(SCCN(C)C)c3c4c(sc3n2)CCCC4)n1 | 41.2 µM |
| CCCCCCCCCCOC(=O)Cn1c(COc2cccc(OC)c2)[n+](C)c2ccccc21 | 12.7 µM |
| CN(C)CCN(C(=O)C1=COCCO1)c1nc2ccc(Cl)cc2s1 | 135 µM |
| O=C(C[n+]1cc(-c2ccc(Cl)cc2)n2c1CCC2)N1c2ccccc2Sc2ccccc21 | 81.5 µM |
| Cc1c(N=Cc2cc(Br)cc(Br)c2O)cccc1C(=O)O | 40.9 µM |
| O=C(CCN1CCN(c2ccccc2)CC1)c1ccc(Cl)cc1 | 64.9 µM |
| CN1CCC(=C2c3ccccc3C=Cc3ccccc32)CC1 | 105 µM |
| CN1CCN(C2Cc3cc(F)ccc3Sc3ccc(Cl)cc32)CC1 (centres undefined) | 62.1 µM |
| C#CCOCCOCCOCCNc1nc(N2CCN(C(=O)CCCCCCCCCCNC(=O)[C@@H](CCSC)n3cc(CCO)nn3)CC2)nc(N2CCN(C(=O)CCCCCCCCCCNC(=O)[C@H]([C@@H](C)CC)n3cc(CCCCN=C(N)N)nn3)CC2)n1 | 82.7 µM |
| CC1(C)CC(=O)c2c(nc3ccccc3c2N)C1 | 71.6 µM |
| O=C(Cn1nc(CNc2ccc(Cl)cc2)[n+]2c1CCCCC2)c1ccc(Br)cc1 | 51.4 µM |
| CCN1/C(=C/C=C/C=C/c2sc3ccccc3[n+]2CC)Sc2ccccc21 | 13.2 µM |
| Nc1[nH]ncc1-c1ccccc1 | 69.6 µM |
| OCCN1CCN(Cc2cc(Cl)c3cccnc3c2O)CC1 | 75.7 µM |
| Cc1ccc(C(c2cc(Cl)c3cccnc3c2O)N2CCN(C)CC2)cc1 (centres undefined) | 37 µM |
| O=C(CSc1nc2ccccc2[nH]1)Nc1ccc(F)c(F)c1 | 62.5 µM |
| O=C(Cn1cc[n+](CC(=O)c2ccc(Cl)cc2Cl)c1)c1ccc(Cl)cc1Cl | 37.5 µM |
| O=C(C[n+]1cccc(CNC(=O)c2ccc(OC(F)F)cc2)c1)Nc1ccc(SC(F)F)cc1 | 83.2 µM |
| O=C(Cn1cncn1)N/N=C/c1ccccc1O | 139 µM |
| NC(=NCCCCCCN=C(N)/N=C(\N)Nc1ccc(Cl)cc1)/N=C(\N)Nc1ccc(Cl)cc1 | 5.4 µM and 7.69 µM and 5.26 µM |

| SMILES | IC50 |
| --- | --- |
| Oc1ccc(C[C@@H]2CNCCN2CCCCC2CCCCC2)cc1 | 46.8 µM |
| Cc1ccc(C(C[N+](=O)[O-])c2c(N)n(C)c(=O)n(C)c2=O)cc1 (centres undefined) | 145 µM |
| COc1cc(C)c(Cc2cnc(N)nc2N)cc1OC | 2.88 µM |
| O=[N+]([O-])c1cc(/C=N/Nc2nc3ccccc3[nH]2)c(O)cc1O | 19.3 µM |
| CCCCCCCCNc1ncnc2ccccc12 | 18.7 µM |
| O/N=C/C1=C(Cl)c2ccccc2CC1 | 125 µM |
| COc1ccc(/C=C/c2cc[n+](C(=O)Cc3ccccc3)cc2)cc1 | 118 µM |
| O=C(Nc1ccc([N+](=O)[O-])cc1Cl)c1cc(Cl)ccc1O | 123 µM |
| Clc1ccc(CN2CCc3c([nH]c4ccccc34)C2)cc1Cl | 36.1 µM |
| NC1CCN(c2c(F)cc3c(=O)c(C(=O)O)cn(C4CC4)c3c2Cl)C1 (centres undefined) | < 0.23 µM |
| CCn1cc(C(=O)NCc2ccc3c(c2)OCO3)c(=O)c2cc(F)c(N3CCN(C(=O)c4ccco4)CC3)cc21 | 139 µM |
| CCC(C)NC(=O)c1cn(CC)c2cc(N3CCN(C)CC3)c(F)cc2c1=O (centres undefined) | 20.7 µM |
| CC(C)Oc1ccc(Cc2cnc(N)nc2N)cc1 | 67.5 µM |
| COC(=O)N/N=C/c1c[n+]([O-])c2ccccc2[n+]1[O-] | 49.2 µM |
| Cc1ccc(NC(=O)c2ccccc2)s1 | 75.9 µM |
| CN1/C(=C\C=C\C2=[N+](C)c3ccc4ccccc4c3C2(C)C)C(C)(C)c2ccccc21 | 5.78 µM |
| Cc1ccc(NC(=O)c2ccc([N+](=O)[O-])o2)c(C)c1 | 76.6 µM |
| CN1CCN(/N=C/c2c3ccccc3c(Cl)c3ccccc23)CC1 | 74.6 µM |
| CCN1/C(=C/c2cc[n+](C)cc2)C=Cc2cc(C)ccc21 | 36.9 µM |
| O=C(CCC(=O)Nc1ccc(Cl)cc1Cl)N/N=C/c1ccc([N+](=O)[O-])o1 | 23.5 µM |
| Cc1ccc(-c2c[n+](Cc3ccc(Cl)c(Cl)c3)c3n2CCC3)cc1 | 33.3 µM |
| Clc1cccc(/C=N\Nc2nccs2)c1 | 18.6 µM |
